Data reported in patent US12365651B2, “Use of pirfenidone and derivatives for modulation of B lymphocyte activity and organ protection from acute tissue damage” (Washington University, priority 2017, dated 2025).
Several values for one entry are separate records, joined by “and”; a condition that tells them apart may be missing. Equal values may be shown once. Read-outs that look alike come from different tables or passages of the source.

How the values were obtained:
[1] = Plasma pharmacokinetics after IV or PO administration; format: in vivo, SD Rat; conditions: SD Rat
Method: Pirfenidone and Pegyonde-6 were administered at equimolar concentrations to rats IV or per os (PO) and serum concentrations measured at different time points to measure pharmacokinetic parameters. The drugs were solubilized in 5% Alcohol+20% PEG 300 in saline.

[2] = test system: purified B lymphocytes harvested from the spleen; test: CD86 on cultured purified splenic B lymphocytes; format: cell-based, mouse
From the text: We next sought to determine whether the response of B cells to necrotic cytosolic extracts and LPS were cell autonomous, by repeating the above in vitro experiments in purified B lymphocytes harvested from the spleen. […] In contrast, necrotic cytosolic extracts induced a small, non-statistically significant (p=0.62) upregulation of CD19+ CD86high B cells when compared to diluent treated cells (FIG. 10G). Similar results were obtained in splenic B lymphocytes from TIRAP−/− animals (FIG. 10H).
Peritoneal derived inflammatory cells (PDICs) were harvested from the peritoneal cavity of thioglycolate-stimulated wild-type and TIRAP−/− deficient mice. PDIC cultures contain an admixture of inflammatory cells, including CD19+ B cells (40). TIRAP deficient mice were a gift from Dr. Ruslan Medzhitov (Yale University, New Haven, CT). PDICs were harvested on day 4 after i.p. injection of 1 ml of thioglycolate medium (Millipore, Billerica, MA, USA). Mice were euthanized, and the peritoneal cavity was washed 3-4 times with 3 mLs of Dulbecco's modified medium containing 10% fetal calf serum. A 3 mL syringe with an 18-gauge needle was used to inject the peritoneal cavity and retrieve the medium containing PDICs. Harvested cells were centrifuged at 250 g for 5 minutes, re-suspended in 5 mL of media and then filtered through a 40 μm strainer. […]

[3] = IV 40 mg/kg, individual rats 1-3, 40 mg/kg
[4] = PO 40 mg/kg, individual rats 7-9, 40 mg/kg

AUMC0-t, Mean ([1]; IV 40 mg/kg): 11482 h*h*ng/mL
AUMC0-∞, Mean ([1]; IV 40 mg/kg): 11490 h*h*ng/mL
CL(/F), Mean ([1]; IV 40 mg/kg): 28.87 mL/min/kg
Vss (/F), Mean ([1]; IV 40 mg/kg): 0.828 L/kg
Plasma concentrations of Pirfenidone ([1]; IV 40 mg/kg, 0.083 h, individual rats 1-3, 40 mg/kg): 34700 ng/mL and 33600 ng/mL
Plasma concentrations of Pirfenidone ([1]; IV 40 mg/kg, 0.25 h, individual rats 1-3, 40 mg/kg): 29300 ng/mL and 25600 ng/mL
Plasma concentrations of Pirfenidone ([1]; IV 40 mg/kg, 0.5 h, individual rats 1-3, 40 mg/kg): 19800 ng/mL and 16100 ng/mL
Plasma concentrations of Pirfenidone ([1]; IV 40 mg/kg, 1 h, individual rats 1-3, 40 mg/kg): 6130 ng/mL and 9860 ng/mL and 4840 ng/mL
Plasma concentrations of Pirfenidone ([1]; IV 40 mg/kg, 2 h, individual rats 1-3, 40 mg/kg): 394 ng/mL and 712 ng/mL and 225 ng/mL
Plasma concentrations of Pirfenidone ([1]; IV 40 mg/kg, 4 h, individual rats 1-3, 40 mg/kg): 6.12 ng/mL and 3.57 ng/mL
AUC0-t [1, 3]: 27907 ng·h/mL and 21142 ng·h/mL
AUC0-∞ [1, 3]: 27910 ng·h/mL and 21144 ng·h/mL
Cmax [1, 3]: 34700 ng/mL and 33600 ng/mL
MRTINF [1, 3]: 32.6 min and 25.6 min
T1/2 [1, 3]: 17 min and 17.3 min
Vss (/F) [1, 3]: 0.898 L/kg and 0.779 L/kg and 0.808 L/kg
AUMC0-∞, Mean ([1]; PO 40 mg/kg): 15669 h*h*ng/mL
Plasma concentrations of Pirfenidone ([1]; PO 40 mg/kg, 0.25 h, individual rats 7-9, 40 mg/kg): 8330 ng/mL and 9540 ng/mL
Plasma concentrations of Pirfenidone ([1]; PO 40 mg/kg, 0.5 h, individual rats 7-9, 40 mg/kg): 6700 ng/mL and 8820 ng/mL
Plasma concentrations of Pirfenidone ([1]; PO 40 mg/kg, 1 h, individual rats 7-9, 40 mg/kg): 3540 ng/mL and 3570 ng/mL
Plasma concentrations of Pirfenidone ([1]; PO 40 mg/kg, 2 h, individual rats 7-9, 40 mg/kg): 2000 ng/mL and 2140 ng/mL
Plasma concentrations of Pirfenidone ([1]; PO 40 mg/kg, 4 h, individual rats 7-9, 40 mg/kg): 7.72 ng/mL and 830 ng/mL and 126 ng/mL
AUC0-t [1, 4]: 12787 ng·h/mL and 12172 ng·h/mL
AUC0-∞ [1, 4]: 12820 ng·h/mL and 12353 ng·h/mL
Cmax [1, 4]: 8330 ng/mL and 9540 ng/mL
MRTINF [1, 4]: 98.64 min and 79.32 min
T1/2 [1, 4]: 18.8 min and 57.5 min and 70.38 min
Tmax ([1]; Sprague-Dawley, plasma, IV 40 mg/kg, read-out: Tmax, Mean): 4.98 min
concentration at 0.083 h ([1]; Sprague-Dawley, rat, plasma, iv, 40 mg/kg, IV 40 mg/kg, 0.083 h, individual rats 1-3, read-out: Plasma concentrations of Pirfenidone): 32900 ng/mL
concentration at 0.083 h ([1]; Sprague-Dawley, rat, plasma, iv, 40 mg/kg, IV 40 mg/kg, 0.083 h, read-out: Plasma concentrations of Pirfenidone, Mean): 33700 ng/mL
concentration at 0.25 h ([1]; Sprague-Dawley, rat, plasma, iv, 40 mg/kg, IV 40 mg/kg, 0.25 h, individual rats 1-3, read-out: Plasma concentrations of Pirfenidone): 21400 ng/mL
concentration at 0.25 h ([1]; Sprague-Dawley, rat, plasma, iv, 40 mg/kg, IV 40 mg/kg, 0.25 h, read-out: Plasma concentrations of Pirfenidone, Mean): 25400 ng/mL
concentration at 0.5 h ([1]; Sprague-Dawley, rat, plasma, iv, 40 mg/kg, IV 40 mg/kg, 0.5 h, individual rats 1-3, read-out: Plasma concentrations of Pirfenidone): 15800 ng/mL
concentration at 0.5 h ([1]; Sprague-Dawley, rat, plasma, iv, 40 mg/kg, IV 40 mg/kg, 0.5 h, read-out: Plasma concentrations of Pirfenidone, Mean): 17200 ng/mL
concentration at 1 h ([1]; Sprague-Dawley, rat, plasma, iv, 40 mg/kg, IV 40 mg/kg, 1 h, read-out: Plasma concentrations of Pirfenidone, Mean): 6940 ng/mL
concentration at 2 h ([1]; Sprague-Dawley, rat, plasma, iv, 40 mg/kg, IV 40 mg/kg, 2 h, read-out: Plasma concentrations of Pirfenidone, Mean): 444 ng/mL
concentration at 4 h ([1]; Sprague-Dawley, rat, plasma, iv, 40 mg/kg, IV 40 mg/kg, 4 h, individual rats 1-3, read-out: Plasma concentrations of Pirfenidone): 4.27 ng/mL
concentration at 4 h ([1]; Sprague-Dawley, rat, plasma, iv, 40 mg/kg, IV 40 mg/kg, 4 h, read-out: Plasma concentrations of Pirfenidone, Mean): 4.7 ng/mL
concentration at 8 h ([1]; Sprague-Dawley, rat, plasma, iv, 40 mg/kg, IV 40 mg/kg, 8 h, individual rats 1-3, read-out: Plasma concentrations of Pirfenidone): 1.22 ng/mL
concentration at 8 h ([1]; Sprague-Dawley, rat, plasma, iv, 40 mg/kg, IV 40 mg/kg, 8 h, read-out: Plasma concentrations of Pirfenidone, Mean): 1.22 ng/mL
AUC0-t ([1]; Sprague-Dawley, rat, plasma, iv, 40 mg/kg, IV 40 mg/kg, read-out: AUC0-t, Mean): 23500 ng·h/mL
AUC(0-inf) ([1]; Sprague-Dawley, rat, plasma, iv, 40 mg/kg, IV 40 mg/kg, read-out: AUC0-∞, Mean): 23500 ng·h/mL
Cmax ([1]; Sprague-Dawley, rat, plasma, iv, 40 mg/kg, IV 40 mg/kg, read-out: Cmax, Mean): 33700 ng/mL
MRT inf ([1]; Sprague-Dawley, rat, plasma, iv, 40 mg/kg, IV 40 mg/kg, read-out: MRTINF, Mean): 29 min
half-life ([1]; Sprague-Dawley, rat, plasma, iv, 40 mg/kg, IV 40 mg/kg, read-out: T1/2, Mean (converted)): 21.4 min
concentration at 0.25 h ([1]; Sprague-Dawley, rat, plasma, po, 40 mg/kg, PO 40 mg/kg, 0.25 h, individual rats 7-9, read-out: Plasma concentrations of Pirfenidone): 9130 ng/mL
concentration at 0.25 h ([1]; Sprague-Dawley, rat, plasma, po, 40 mg/kg, PO 40 mg/kg, 0.25 h, read-out: Plasma concentrations of Pirfenidone, Mean): 9000 ng/mL
concentration at 0.5 h ([1]; Sprague-Dawley, rat, plasma, po, 40 mg/kg, PO 40 mg/kg, 0.5 h, individual rats 7-9, read-out: Plasma concentrations of Pirfenidone): 8450 ng/mL
concentration at 0.5 h ([1]; Sprague-Dawley, rat, plasma, po, 40 mg/kg, PO 40 mg/kg, 0.5 h, read-out: Plasma concentrations of Pirfenidone, Mean): 7990 ng/mL
concentration at 1 h ([1]; Sprague-Dawley, rat, plasma, po, 40 mg/kg, PO 40 mg/kg, 1 h, individual rats 7-9, read-out: Plasma concentrations of Pirfenidone): 5110 ng/mL
concentration at 1 h ([1]; Sprague-Dawley, rat, plasma, po, 40 mg/kg, PO 40 mg/kg, 1 h, read-out: Plasma concentrations of Pirfenidone, Mean): 4070 ng/mL
concentration at 2 h ([1]; Sprague-Dawley, rat, plasma, po, 40 mg/kg, PO 40 mg/kg, 2 h, individual rats 7-9, read-out: Plasma concentrations of Pirfenidone): 1190 ng/mL
concentration at 2 h ([1]; Sprague-Dawley, rat, plasma, po, 40 mg/kg, PO 40 mg/kg, 2 h, read-out: Plasma concentrations of Pirfenidone, Mean): 1780 ng/mL
concentration at 4 h ([1]; Sprague-Dawley, rat, plasma, po, 40 mg/kg, PO 40 mg/kg, 4 h, read-out: Plasma concentrations of Pirfenidone, Mean): 321 ng/mL
concentration at 8 h ([1]; Sprague-Dawley, rat, plasma, po, 40 mg/kg, PO 40 mg/kg, 8 h, read-out: Plasma concentrations of Pirfenidone, Mean): 65.3 ng/mL
Cmax ([1]; Sprague-Dawley, rat, plasma, po, 40 mg/kg, PO 40 mg/kg, individual rats 7-9, read-out: Cmax): 9130 ng/mL
MRT inf ([1]; Sprague-Dawley, rat, plasma, po, 40 mg/kg, PO 40 mg/kg, individual rats 7-9, read-out: MRTINF): 52 min
AUC0-t ([1]; Sprague-Dawley, rat, serum, iv, 40 mg/kg, IV 40 mg/kg, individual rats 1-3, read-out: AUC0-t): 21400 ng·h/mL
AUC(0-inf) ([1]; Sprague-Dawley, rat, serum, iv, 40 mg/kg, IV 40 mg/kg, individual rats 1-3, read-out: AUC0-∞): 21400 ng·h/mL
Cmax ([1]; Sprague-Dawley, rat, serum, iv, 40 mg/kg, IV 40 mg/kg, individual rats 1-3, read-out: Cmax): 32900 ng/mL
MRT inf ([1]; Sprague-Dawley, rat, serum, iv, 40 mg/kg, IV 40 mg/kg, individual rats 1-3, read-out: MRTINF): 28.8 min
half-life ([1]; Sprague-Dawley, rat, serum, iv, 40 mg/kg, IV 40 mg/kg, individual rats 1-3, read-out: T1/2 (converted)): 30 min
AUC0-t ([1]; Sprague-Dawley, rat, serum, po, 40 mg/kg, PO 40 mg/kg, individual rats 7-9, read-out: AUC0-t): 11100 ng·h/mL
AUC(0-inf) ([1]; Sprague-Dawley, rat, serum, po, 40 mg/kg, PO 40 mg/kg, individual rats 7-9, read-out: AUC0-∞): 11100 ng·h/mL
AUC0-t ([1]; Sprague-Dawley, rat, serum, po, 40 mg/kg, PO 40 mg/kg, read-out: AUC0-t, Mean): 12000 ng·h/mL
AUC(0-inf) ([1]; Sprague-Dawley, rat, serum, po, 40 mg/kg, PO 40 mg/kg, read-out: AUC0-∞, Mean): 12100 ng·h/mL
Cmax ([1]; Sprague-Dawley, rat, serum, po, 40 mg/kg, PO 40 mg/kg, read-out: Cmax, Mean): 9000 ng/mL
MRT inf ([1]; Sprague-Dawley, rat, serum, po, 40 mg/kg, PO 40 mg/kg, read-out: MRTINF, Mean): 76.8 min
half-life ([1]; Sprague-Dawley, rat, serum, po, 40 mg/kg, PO 40 mg/kg, read-out: T1/2, Mean (converted)): 48.9 min
Tmax ([1]; Sprague-Dawley, serum, IV 40 mg/kg, individual rats 1-3, read-out: Tmax): 4.98 min
bioavailability ([1]; Sprague-Dawley, serum, PO 40 mg/kg vs IV 40 mg/kg): 22.6%
Tmax ([1]; Sprague-Dawley, serum, PO 40 mg/kg, read-out: Tmax, Mean): 15 min
SMILES: Cc1ccc(=O)n(-c2ccccc2)c1 [Pirfenidone, 5 methyl-1-phenyl-2-[H] pyridone]
Plasma concentrations of Pirfenidone ([1]; IV 40 mg/kg, 8 h, individual rats 1-3, 40 mg/kg): BLOQ (Below lower limit of quantification (1 ng/mL))
Plasma concentrations of Pirfenidone ([1]; IV 40 mg/kg, 24 h, individual rats 1-3): BLOQ (Below lower limit of quantification (1 ng/mL))
AUMC0-t [1, 3]: 10270 h*h*ng/mL and 15155 h*h*ng/mL and 9021 h*h*ng/mL
AUMC0-∞ [1, 3]: 10277.2 h*h*ng/mL and 15166.3 h*h*ng/mL and 9027.6 h*h*ng/mL
CL(/F) [1, 3]: 31.17 mL/min/kg and 23.88 mL/min/kg and 31.53 mL/min/kg
Plasma concentrations of Pirfenidone ([1]; PO 40 mg/kg, 24 h, individual rats 7-9): BLOQ (Below lower limit of quantification (1 ng/mL))
AUMC0-t [1, 4]: 9588 h*h*ng/mL and 20769 h*h*ng/mL and 14572 h*h*ng/mL
AUMC0-∞ [1, 4]: 9604 h*h*ng/mL and 21076 h*h*ng/mL and 16326 h*h*ng/mL
LPS induced expression of CD86 on B cells ([2]; B lymphocytes from the spleen, 24 hours, LPS + 0.5% pirfenidone): significantly reduced
LPS provoked increase in CD19+ CD86high cells ([2]; purified splenic B lymphocytes, wild type, LPS): partially sensitive to inhibition
